According to ChEMBL document CHEMBL3639166, “Heteroaryloxyheterocyclyl compounds as PDE10 inhibitors” (2013):
pIC50: −log10 of the molar value.

What follows are compounds tested against T1, cAMP and cAMP-inhibited cGMP 3',5'-cyclic phosphodiesterase 10A (Rattus norvegicus, UniProt Q9QYJ6) (assay: Enzyme Inhibition Assay: Enzyme activity: An IMAP TR-FRET assay was used to analyze the enzyme activity (Molecular Devices Corp., Sunnyvale, Calif).).
T1 sequence (Q9QYJ6 whole entry): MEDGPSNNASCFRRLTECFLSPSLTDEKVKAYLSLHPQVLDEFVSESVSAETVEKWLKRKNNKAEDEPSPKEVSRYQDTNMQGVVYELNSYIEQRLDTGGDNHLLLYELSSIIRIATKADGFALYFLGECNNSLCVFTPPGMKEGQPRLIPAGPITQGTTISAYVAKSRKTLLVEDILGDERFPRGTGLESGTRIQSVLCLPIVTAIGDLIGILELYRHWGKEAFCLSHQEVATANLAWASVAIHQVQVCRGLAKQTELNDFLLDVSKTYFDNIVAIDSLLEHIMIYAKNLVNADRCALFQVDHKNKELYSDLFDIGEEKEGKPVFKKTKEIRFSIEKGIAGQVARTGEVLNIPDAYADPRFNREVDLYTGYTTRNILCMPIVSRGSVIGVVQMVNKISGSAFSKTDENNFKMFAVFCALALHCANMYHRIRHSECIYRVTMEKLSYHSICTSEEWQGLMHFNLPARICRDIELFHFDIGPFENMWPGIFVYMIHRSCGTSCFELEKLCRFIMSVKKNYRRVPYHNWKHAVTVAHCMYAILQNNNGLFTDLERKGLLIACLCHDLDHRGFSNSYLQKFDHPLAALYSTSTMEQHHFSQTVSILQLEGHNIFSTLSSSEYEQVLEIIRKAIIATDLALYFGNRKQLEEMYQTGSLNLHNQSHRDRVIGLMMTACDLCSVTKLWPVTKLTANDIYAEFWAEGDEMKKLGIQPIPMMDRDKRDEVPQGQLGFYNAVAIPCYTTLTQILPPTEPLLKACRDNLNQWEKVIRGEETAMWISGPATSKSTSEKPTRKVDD

SMILES	pIC50
CC(C)(C)OC(=O)N1CCC(c2nc3ccccc3nc2OC2CN(c3ccc4ccccc4n3)C2)CC1	6.94
COc1cccc(-c2cnc(N3CCC(CO)CC3)nc2OC2CN(c3ccc4ccccc4n3)C2)c1	8.48
c1cnc(OC2CN(c3ccc4ccccc4n3)C2)c(C2CCOCC2)c1	5.74
N#Cc1ccc(N2CCC(Oc3ncccc3C3CCOCC3)CC2)nc1	6.08
Nc1ncc2cc(-c3nccnc3OC3CN(c4ccc5ccccc5n4)C3)ccc2n1	8.48
c1ccc(N2CCC(Oc3nccnc3C3CCOCC3)CC2)nc1	5.62
c1ccc2nc(N3CCC(Oc4nccnc4N4CCCCC4)CC3)ccc2c1	6.39
COc1cnccc1-c1cccnc1OC1CN(C(=O)OCc2ccccc2)C1	5.12
O=C(c1ccc2ccccc2n1)N1CCC(Oc2ncccc2C2CCOCC2)CC1	6.09
CC(=O)N1CCC(c2cccnc2OC2CCN(c3cccc(Cl)n3)CC2)CC1	6.25
c1ccc2nc(N3CC(Oc4nccnc4N4CCC4)C3)ccc2c1	7.06
CC(=O)N1CC=C(c2nccnc2OC2CCN(C(=O)c3nc4ccccc4[nH]3)CC2)CC1	7.14
O=C(c1nc2ccccc2[nH]1)N1CC(Oc2cnccn2)C1	4.91
Brc1ccc(N2CCC(Oc3ncccc3C3CCOCC3)CC2)nc1	6.86
Cc1ccc(N2CCC(Oc3ncccc3C3CCOCC3)CC2)nc1	6.58
O=C(c1ccc2ccccc2n1)N1CCC(Oc2nccnc2C2CCOCC2)CC1	6.00
O=[N+]([O-])c1ccc(N2CCC(Oc3ncccc3C3CCOCC3)CC2)nc1	5.85
CC(=O)N1CC=C(c2nccnc2OC2CN(C(=O)c3cc(C)c[nH]3)C2)CC1	6.60
O=C1CCC(c2nccnc2OC2CN(C(=O)c3nc4ccccc4[nH]3)C2)CC1	6.94
Cc1cccc(N2CCC(Oc3ncccc3C3CCOCC3)CC2)n1	5.78
c1ccc2nc(N3CC(Oc4nccnc4C4CCOCC4)C3)ccc2c1	6.48

Further compounds by rising pIC50, results first:

pIC50	SMILES
4.95	O=C(c1nccc2ccccc12)N1CCC(Oc2ncccc2N2CCOCC2)CC1
5.10	CC(=O)N1CCCC(c2cccnc2OC2CN(C(=O)c3cc(C)c[nH]3)C2)C1 (configuration not stated)
5.43	O=C(c1ncc[nH]1)N1CCC(Oc2ncccc2C2CCOCC2)CC1
5.79	CC(=O)N1CCC(c2nccnc2OC2CCN(c3ccc4ccccc4n3)CC2)CC1
5.93	CC(=O)N1CCC(c2cccnc2OC2CCN(c3cccc(C)n3)CC2)CC1
5.93	Cc1cccc(C(=O)N2CCC(Oc3ncccc3C3CCOCC3)CC2)n1
5.93	CC(=O)N1CCC(c2cccnc2OC2CCN(c3ccc(C)cn3)CC2)CC1
6.10	O=C(c1nc2ccccc2[nH]1)N1CC(Oc2nc3ccccc3nc2C2CCOCC2)C1
6.19	Cc1cc(-c2nccnc2O[C@H]2CCN(c3ccc4ccccc4n3)C2)ccn1
6.33	Cc1ccc2nc(N3CCC(Oc4ncccc4C4CCOCC4)CC3)ccc2c1
6.60	c1ccc(-c2ccc(-c3nccnc3OC3CN(c4ccc5ccccc5n4)C3)s2)cc1
6.63	Cc1ccnc(N2CCC(Oc3ncccc3C3CCOCC3)CC2)c1
6.75	COc1ncccc1-c1nccnc1OC1CN(c2ncc3ccccc3n2)C1
7.20	CC1CN(c2nccnc2OC2CN(c3ccc4ccccc4n3)C2)CCO1 (configuration not stated)
7.30	c1ccc2nc(N3CC(Oc4nccnc4-c4ccc(OCC5CC5)nc4)C3)ccc2c1
7.40	Fc1cc(-c2nccnc2OC2CN(c3ccc4ccccc4n3)C2)ccn1
